Experimental findings from patent US20250275996A1, “COMBINATION OF TUNICAMYCIN-TYPE ANTIBIOTIC WITH POLYMYXINS AND USES THEREOF” (priority 2024, published 2025) are described below.

The subject of assay [1] is S. marcescens B-2544. The assay can be described thus: MIC by resazurin staining assay, S. marcescens. In kind it is cell-based, Serratia marcescens. As to conditions: 24 hours at 37° C. As to the method:
(§1) The […] growth inhibition (MIC) using natural tunicamycin (TUN), a tunicamycin derivative TunR2, polymyxin B, or a combination of polymyxin B with TUN or TunR2 were tested. Testing was performed using the resazurin staining assay. The resazurin staining assay uses the reduction by bacterial viable cells of the blue, non-fluorescent, and non-toxic dye, resazurin, to pink, fluorescent resorufin to assess the viability of biofilms. The Minimal Inhibitory Concentration (MIC) values where determined using standard microbiological methods, for example by spotting dilutions of the compounds or combinations on solid agar media plates after inoculating with bacteria, yeast, or buffer alone, followed by incubating for a defined period. This method results in clearing zones on agar plates.
(§2) The activity of TUN or TunR2 in the presence or absence of polymyxin B on Serratia marcescens (a honey bee pathogen) or E. coli was tested. The MIC was determined using the resazurin staining assay described in Example 1.
Plates inoculated with S. marcescens B-2544, E. coli, or DMSO alone (Control) in TYG were spotted with a dilution gradient of TUN or TunR2 in the presence or absence of a sub-MIC concentration of polymyxin B (half the MIC concentration), and incubated for 24 hours at 37° C. […]
Background: Resazurin is reduced to fluorescent resorufin, in cell work by metabolically active cells.

The test system of assay [2] is P. aeruginosa ATCC 2783. The assay is described as follows: MIC by resazurin staining assay, P. aeruginosa. It is filed as cell-based, Pseudomonas aeruginosa. The procedure:
as §1
(§3) To determine the MIC for polymyxin B alone, plates inoculated with E. coli MG1655 (Gram-negative bacterium), P. aeruginosa ATCC 2783 (Gram-negative bacterium), B. subtilis MW10 (Gram-positive bacterium), S. cerevisiae (eukaryote) in TYG, or DMSO alone (Control) were spotted with a dilution gradient of polymyxin B, and incubated for 24 hours at 30° C.
(§4) To determine the MIC for TUN or TunR2 in the presence or absence of polymyxin B, plates inoculated with E. coli MG1655, or P. aeruginosa ATCC 2783 in TYG, were spotted with a dilution gradient of Tun or TunR2 in the presence or absence of polymyxin B at sub-MIC concentration (MIC/2), or DMSO alone (Control). Images of two plates inoculated with E. coli are shown in FIG. 4A and FIG. 4B, and images of two plates inoculated with P. aeruginosa are shown in FIG. 4C and FIG. 4D.
The activity of Cefquinome alone, or in the presence of TunR2, polymyxin B, or polymyxin B and TunR2 on P. aeruginosa was tested. The MIC was determined using the resazurin staining assay described in Example 1.
Plates inoculated with P. aeruginosa, or DMSO alone (Control) in TYG were spotted with a dilution gradient of Cefquinome in the presence of TunR2, polymyxin B, or polymyxin B and TunR2, and incubated for 24 hours at 37° C.

The test system of assay [3] is E. coli MG1655. The assay is described as follows: MIC by resazurin staining assay, E. coli. It is filed as cell-based, Escherichia coli. The procedure: as §1, §3, §4, §2
Plates inoculated with S. marcescens B-2544, E. coli, or DMSO alone (Control) in TYG were spotted with a dilution gradient of TUN or TunR2 in the presence or absence of a sub-MIC concentration of polymyxin B (half the MIC concentration), and incubated for 24 hours at 37° C. An image of a plate inoculated with S. marcescens is shown in FIG. 7A, and an image of a plate inoculated with E. coli is shown in FIG. 7B. […] The results obtained for E. coli compare well with the MICs of other antibiotics as taught by m. de Boer et al. (2015, “Minimum Inhibitory Concentrations of Selected Antimicrobials Against Escherichia Coli and Trueperella pyogenes of Bovine Uterine Origin,” J Dairy Sci. 98:4427-4438).

Assay [4] has as its system B. subtilis MW10. The assay can be described thus: MIC by resazurin staining assay, B. subtilis. The note with it: 24 hours at 30° C., TYG. It is filed as cell-based, Bacillus subtilis. As to the method:
as §1, §3

Assay [5] deals with S. cerevisiae. The assay is described as follows: MIC by resazurin staining assay, yeast. In kind it is cell-based, Saccharomyces cerevisiae. The note with it: 24 hours at 30° C., TYG. As to the method: as §1, §3
[6] abbreviates: alone, dilution series, 24 hours at 37° C.

Regarding tunicamycin, the “MIC in the presence of polymyxin B” value in assay [1] (S. marcescens, sub-MIC polymyxin B (half the MIC)) was determined as 5.0 µg/mL; in assay [3] (Example 2, E. coli, sub-MIC polymyxin B (half the MIC), 24 hours at 37° C.), 0.313 µg/mL. In assay [1] (absence of polymyxin B, any of the concentrations tested), the “effect on S. marcescens when used alone” value is reported as “neither TUN nor TunR2 had a detectable effect”. The “effect on P. aeruginosa in the absence of polymyxin B” value in assay [2] (setting [6]) is reported as “neither Tun nor TunR2 had noticeable effect”. Also, the “growth of P. aeruginosa in the presence of polymyxin B” value in assay [2] (with polymyxin B at MIC/2 (2.5 μg/mL), 24 hours at 37° C.) is given as “no E. coli or P. aeruginosa grew”. Also, in assay [3] (Example 2, absence of polymyxin B, 24 hours at 37° C., any of the concentrations tested), the “effect on E. coli when used alone” value was “neither TUN nor TunR2 had a detectable effect”. Further, the “effect on E. coli in the absence of polymyxin B” value in assay [3] (setting [6]) is “neither Tun nor TunR2 had noticeable effect”. Further, the “growth of E. coli in the presence of polymyxin B” value in assay [3] (with polymyxin B at MIC/2 (0.313 μg/mL), 24 hours at 37° C.) is given as “no E. coli or P. aeruginosa grew”.
With polymyxin B, the “MIC for polymyxin B alone” value in assay [4] is 2.5 µg/mL. Also, the “effect on yeast (MIC for polymyxin B alone)” value in assay [5] is “not detectable”. Besides, the MIC of polymyxin in assay [2] (Pseudomonas, polymyxin alone) amounted to 5.0 µg/mL; in assay [3] (E. coli, polymyxin alone), 0.625 µg/mL.
For the compound `CO/N=C(\C(=O)N[C@@H]1C(=O)N2C(C(=O)[O-])=C(C[n+]3cccc4c3CCCC4)CS[C@H]12)c1csc(N)n1` [Cefquinome], the “MIC for Cefquinome (FIG. 8 legend)” value in assay [2] (P. aeruginosa in TYG, Cefquinome alone, 48 hours at 37° C.) is 10.0 µg/mL. Further, the “MIC for Cefquinome alone” value in assay [2] (P. aeruginosa, 24 hours at 37° C.) turned out to be 10 µg/mL. Moreover, the “MIC for Cefquinome in the presence of polymyxin B and TunR2” value in assay [2] (P. aeruginosa, with 2.5 μg/mL polymyxin B and 6.25 μg/mL TunR2, 24 hours at 37° C.) is 1.25 µg/mL. The “MIC for Cefquinome in the presence of polymyxin B” value in assay [2] (P. aeruginosa, with 2.5 μg/mL polymyxin B, 24 hours at 37° C.) stood at 5 µg/mL. Moreover, in assay [2] (P. aeruginosa, with 6.25 μg/mL TunR2, 24 hours at 37° C.), the “MIC for Cefquinome in the presence of TunR2” value turned out to be 10 µg/mL.
